# Read-outs that look alike come from different tables or passages of the source.
# Key:
# strychnine [1] = settings: convulsant i.v.; data from Worms et al. 1982; cited from earlier work
# tonic seizure [2] = settings: cited from earlier work
# (+)bicuculline [3] = settings: cited from earlier work
# picrotoxin [4] = settings: cited from earlier work
# [5] = test system: metrazol induced convulsions; settings: cited from earlier work
# mice [6] = settings: data from Swinyard & Woodhead 1982; cited from earlier work
# strychnine [7] = test: Anticonvulsant test against strychnine; format: in vivo, mice; settings: Mus musculus, read-out: ED50 STR
# Procedure: (§1) The anticonvulsant tests are similar to that described above. […] The number of animals with tonic and/or clonic convulsions was recorded. In the maximal electroshock test, 50 mA of current at 60 Hz was delivered through corneal electrodes for 200 msec to induce tonic seizure. The ability of compounds to abolish the tonic component was defined as the endpoint. General CNS depression potential was determined by a rotorod test 10 minutes after the injection of compounds where the number of mice staying on a rotating (6 rpm) rod for 1 minute in one of the three trials was determined. […] Table 7. Anticonvulsant Activity of Exemplified Neuroactive Steroids and those of Selected Clinically Useful Anticonvulsants in Mice
# (+)bicuculline [8] = test: Anticonvulsant test against (+)bicuculline; format: in vivo, mice; settings: Mus musculus, read-out: ED50 BIC
# Procedure: as §1
# picrotoxin [9] = test: Anticonvulsant test against picrotoxin; format: in vivo, mice; settings: Mus musculus, read-out: ED50 PICRO
# Procedure: as §1
# [10] = test system: Bovine Uteral Progesterone Receptors; test: Inhibition of 3H-progesterone binding, uterus cytosol; settings: competitor 10^-6M; 3H-progesterone 0.15 nM
# Procedure: The data presented were obtained by performing assays in accordance with the procedures described in et al. 1988 previously to determine the effect of progesterone metabolites and their derivatives and the progestin R5020 on the binding of [^3H]R5020 to the progesterone receptor in rat uterus (Gee et al. 1988).
# ^3H-progesterone (0.15 nM) was incubated with the rat uterus cytosol in the presence of the test compounds. The specific binding were determined after incubation and compared to the control incubation without the compounds. The data are expressed as percent inhibition of binding.
# In Table 3, rats were adrenalectomized 3 days prior to sacrifice. To isolate the mineralocorticoid receptor, brain cytosol fractions were prepared as describe in Gee, et al. 1988. The drugs were incubated with 3 nM of ^3H-aldosterone (the specific ligand for the mineralocorticoid receptor) in the presence of the selective type II agonist RU28362 (0.5 µM) which blocks ^3H-aldosterone binding to the type II (glucocorticoid) receptors. Table 2. Inhibition of 3H-Progesterone Binding to the Bovine Uteral Progesterone Receptors
# [11] = test system: metrazol induced convulsions; test: animal or person; format: in vivo, mice; settings: Mus musculus; metrazol 85 mg/kg s.c., steroids i.p., mice
# Glucocorticoid Receptors = target: T1, Glucocorticoid Receptors (Rattus norvegicus, UniProt P06536); test: Inhibition of 3H-dexamethasone binding, brain cytosol; set-up: species or system rats; dose or concentration left out as unconfirmed; settings: read-out: % of Inhibition
# T1 construct: from tissue; host or cells: rat brain cytosol
# T1 sequence (P06536 1-795): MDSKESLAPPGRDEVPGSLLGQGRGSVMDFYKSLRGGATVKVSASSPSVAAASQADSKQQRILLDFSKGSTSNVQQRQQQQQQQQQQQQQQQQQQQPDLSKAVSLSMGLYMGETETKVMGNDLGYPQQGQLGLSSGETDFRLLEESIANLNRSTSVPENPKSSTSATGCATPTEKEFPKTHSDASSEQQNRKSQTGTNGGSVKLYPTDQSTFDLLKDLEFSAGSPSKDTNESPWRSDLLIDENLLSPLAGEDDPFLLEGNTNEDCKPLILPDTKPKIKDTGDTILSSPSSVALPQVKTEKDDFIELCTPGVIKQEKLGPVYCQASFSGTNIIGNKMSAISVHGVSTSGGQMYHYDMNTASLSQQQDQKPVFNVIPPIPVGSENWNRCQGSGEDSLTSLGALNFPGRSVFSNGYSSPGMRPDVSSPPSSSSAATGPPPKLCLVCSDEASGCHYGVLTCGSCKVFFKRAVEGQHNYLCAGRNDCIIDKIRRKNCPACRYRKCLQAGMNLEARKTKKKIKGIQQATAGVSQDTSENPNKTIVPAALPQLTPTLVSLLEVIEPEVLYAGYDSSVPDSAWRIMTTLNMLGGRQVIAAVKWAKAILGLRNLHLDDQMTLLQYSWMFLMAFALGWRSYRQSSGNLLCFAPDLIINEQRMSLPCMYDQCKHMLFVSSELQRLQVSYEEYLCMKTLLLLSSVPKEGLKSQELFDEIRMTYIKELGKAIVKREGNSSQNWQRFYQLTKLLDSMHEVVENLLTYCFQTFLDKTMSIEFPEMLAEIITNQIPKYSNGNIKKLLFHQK
# Procedure: (§2) Various hormonal activities of representative neuroactive steroids were further studied through testing their potential estrogenic, mineralocorticoid and glucocorticoid activities. These activities were analyzed by monitoring the ability of the compounds to inhibit binding of the steroid hormones to their respective hormone receptors.
# For Table 4, brain cytosol fractions were prepared as for Table 3, and the compounds were incubated with 3 nM of ^3H-dexamethasone (the specific ligand for the glucocorticoid receptor).
# [12] = target: T2, Hippocampal Mineralocorticoid Receptors (Rattus norvegicus, UniProt P22199); test: Inhibition of 3H-aldosterone binding, brain cytosol; set-up: species or system rats; settings: competitor 10^-6M; 3 nM 3H-aldosterone, RU28362 0.5 µM
# T2 construct: To isolate the mineralocorticoid receptor, brain cytosol fractions were prepared; from tissue; host or cells: rat brain (hippocampal) cytosol
# T2 sequence (P22199 1-981): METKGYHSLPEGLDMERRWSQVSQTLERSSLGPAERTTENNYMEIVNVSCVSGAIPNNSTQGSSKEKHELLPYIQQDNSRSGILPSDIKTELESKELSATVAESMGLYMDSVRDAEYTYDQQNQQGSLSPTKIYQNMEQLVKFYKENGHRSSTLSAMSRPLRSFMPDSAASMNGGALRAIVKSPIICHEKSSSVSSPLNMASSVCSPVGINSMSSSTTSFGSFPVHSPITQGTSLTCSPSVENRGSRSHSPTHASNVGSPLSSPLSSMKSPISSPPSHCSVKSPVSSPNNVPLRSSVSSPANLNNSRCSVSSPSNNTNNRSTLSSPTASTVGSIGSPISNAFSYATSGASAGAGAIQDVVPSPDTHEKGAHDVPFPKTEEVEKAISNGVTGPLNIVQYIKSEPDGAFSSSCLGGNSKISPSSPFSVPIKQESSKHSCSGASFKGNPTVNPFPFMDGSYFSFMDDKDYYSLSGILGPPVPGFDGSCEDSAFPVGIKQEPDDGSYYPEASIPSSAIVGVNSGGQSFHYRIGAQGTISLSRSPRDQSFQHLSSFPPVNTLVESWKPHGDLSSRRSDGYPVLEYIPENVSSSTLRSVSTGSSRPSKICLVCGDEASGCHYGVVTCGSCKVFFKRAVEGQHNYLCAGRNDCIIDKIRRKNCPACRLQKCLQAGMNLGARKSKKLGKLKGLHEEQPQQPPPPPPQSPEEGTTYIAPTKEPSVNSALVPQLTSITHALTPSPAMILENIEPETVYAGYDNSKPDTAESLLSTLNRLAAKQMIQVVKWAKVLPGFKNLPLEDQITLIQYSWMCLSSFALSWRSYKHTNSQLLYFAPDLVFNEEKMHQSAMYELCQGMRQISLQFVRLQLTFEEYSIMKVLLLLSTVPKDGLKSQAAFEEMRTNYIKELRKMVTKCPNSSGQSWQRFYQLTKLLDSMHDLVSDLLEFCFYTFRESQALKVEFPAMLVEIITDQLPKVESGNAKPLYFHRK
# Procedure: as §2
# In Table 3, rats were adrenalectomized 3 days prior to sacrifice. […] Table 2. Inhibition of 3H-Progesterone Binding to the Bovine Uteral Progesterone Receptors
# Table 3. Inhibition of 3H-Aldosterone Binding to Hippocampal Mineralocorticoid Receptors
# tonic seizure [13] = test: Maximal electroshock test; format: in vivo; settings: Mus musculus, ip, steroids i.p., mice
# Procedure: as §1
# mice [14] = test: Loss-of-righting reflex (anesthetic activity); format: in vivo; settings: iv
# Procedure: The compounds of and used in the invention can also be used for anesthetic indications at high doses. However, the preferred route of administration to induce anesthesia is intravenous (i.v.) administration. In animals, a drug's anesthetic properties is measured by the drug's ability to produce a loss-of-righting reflex. The loss-of-righting reflex is defined as the inability of an animal to right itself within […] on its back. Mice were administered drug i.v. in the lateral tail vein. Following administration, mice were placed on their backs and observed for loss-of-righting reflex. Table 12. Anesthetic Activity of Neuroactive Steroids in Mice
# [15] = target: T3, Bovine Uteral Estrogen Receptors (Bos taurus, UniProt P49884); test: Inhibition of 3H-estradiol binding, uteri cytosol; settings: competitor 10^-6M; 3H-estradiol 0.15 nM
# T3 construct: from tissue; host or cells: bovine uteri cytosol
# T3 sequence (P49884 1-596): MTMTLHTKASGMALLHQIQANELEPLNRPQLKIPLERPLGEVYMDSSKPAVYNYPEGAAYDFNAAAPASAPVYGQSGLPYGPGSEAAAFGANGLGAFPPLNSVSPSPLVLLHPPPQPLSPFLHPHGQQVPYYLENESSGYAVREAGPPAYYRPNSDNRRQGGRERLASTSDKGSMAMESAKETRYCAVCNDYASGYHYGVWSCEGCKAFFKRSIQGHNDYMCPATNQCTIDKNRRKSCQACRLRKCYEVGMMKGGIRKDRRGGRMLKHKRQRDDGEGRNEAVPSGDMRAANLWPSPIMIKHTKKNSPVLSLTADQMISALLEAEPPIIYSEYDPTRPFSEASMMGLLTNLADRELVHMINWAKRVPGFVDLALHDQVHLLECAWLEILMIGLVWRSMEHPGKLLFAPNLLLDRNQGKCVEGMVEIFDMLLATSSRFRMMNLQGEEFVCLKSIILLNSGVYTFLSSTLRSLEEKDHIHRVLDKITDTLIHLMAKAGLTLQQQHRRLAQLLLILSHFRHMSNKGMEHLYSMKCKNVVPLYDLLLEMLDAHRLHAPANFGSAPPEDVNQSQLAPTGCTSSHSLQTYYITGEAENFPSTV
# [16] = test system: N.I.H. Swiss-Webster mice; test: Light/dark transition test; format: in vivo; settings: IP, 10 min test, vs control, Dunnett's t-test (Fig. 8)
# Procedure: Male N.I.H. Swiss-Webster mice (Harlan, Harlan, Indianapolis, IN) weighing 15-20 g were housed four per cage in polyethylene cages with sawdust bedding. The colony room was environmentally controlled (22°C) with a hr light/dark cycle (0600-1800hr). Food and water were available ad libitum, except during testing. The experiments were run from 0700-1500 hr and groups were counterbalanced for time of day effects. Mice were only administered drug or vehicle once.
# The apparatus included two 2-compartment automated test chambers (Model RXYZCM16, Omnitech Electronics, Columbus, OH). The open compartment was connected to the enclosed compartment via a 7.5 × 7.5 cm passageway. The open compartment was brightly lit using a 200 W incandescent light bulb. The experimental room was kept dark. Interruptions of the infrared beams in either chamber were automatically recorded by being linked to a computer through a Digiscan Analyzer (Omnitech and the data was analyzed using the Integrated Lab Animal Monitoring System (Omnitech Electronics). N.IH. Swiss-Webster mice were administered vehicle or test drug intraperiotoneally (IP),10 min later they were placed in the center of the lit compartment. The number of transitions between the lit and dark chambers, total activity in the lit chamber and the time spent in the lit chamber were measured during a 10 min test period.
# [17] = convulsant i.v., data from Worms et al. 1982
# [18] = data from Swinyard & Woodhead 1982
compound,measurement,setting,value
NC(=O)CCC/N=C(\c1ccc(Cl)cc1)c1cc(F)ccc1O [Progabide],ED50 STR,strychnine [1],75 mg/kg
same,ED50 MES,tonic seizure [2]; data from Worms et al. 1982,75 mg/kg
same,ED50 BIC,(+)bicuculline [3]; [17],30 mg/kg
same,ED50 PICRO,picrotoxin [4]; [17],105 mg/kg
same,ED50 MTZ,[5]; [17],30 mg/kg
O=C1CN=C(c2ccccc2Cl)c2cc([N+](=O)[O-])ccc2N1 [Clonazepam],ED50 RR,mice [6],0.184 mg/kg
same,ED50 MES,tonic seizure [2]; [18],93 mg/kg
same,ED50 BIC,(+)bicuculline [3]; [18],0.0086 mg/kg
same,ED50 PICRO,picrotoxin [4]; [18],0.043 mg/kg
same,ED50 MTZ,[5]; [18],0.009 mg/kg
CCC1(c2ccccc2)C(=O)NC(=O)NC1=O [Phenobarbital],ED50 RR,mice [6],69 mg/kg
CC(=O)[C@H]1CC[C@H]2[C@@H]3CC[C@H]4C[C@](C)(O)CC[C@]4(C)[C@H]3CC[C@]12C [3α-hydroxy-3β-methyl-5α-pregnan-20-one],ED50,strychnine [7],> 100 mg/kg
same,ED50,(+)bicuculline [8],61.9 mg/kg
same,ED50,picrotoxin [9],35.4 mg/kg
same,% of Inhibition,[10],4%
same,ED50,[11],6.3 mg/kg
same,inhibition,Glucocorticoid Receptors,0.6%
same,inhibition at 1 µM,[12],3.2%
same,ED50,tonic seizure [13],> 100 mg/kg
"CC(C)(O)[C@H]1CC[C@H]2[C@@H]3CC[C@H]4C[C@H](O)CC[C@]4(C)[C@H]3CC[C@]12C [5α-pregnan-20-dimethyl-3α,20-diol]",% of Inhibition,[10],0%
same,inhibition,Glucocorticoid Receptors,2.6%
same,inhibition at 1 µM,[12],0%
CO/C=C1/CC[C@H]2[C@@H]3CC[C@H]4C[C@H](O)CC[C@@H]4[C@H]3CC[C@]12C [3α-Hydroxy-17(Z)-methoxymethylene-19-nor-5α-androstane],Loss-of-Righting Reflex,mice [14]; 5 mg/kg,75
"5α-pregnan-3β,20-trimethyl-3α,20-diol",% of Inhibition,[10],8%
same,% of Inhibition,[12],0%
same,% of Inhibition,[15],0%
CC(=O)[C@H]1CC[C@H]2[C@@H]3CC[C@H]4C[C@H](O)CC[C@]4(C)C3=CC[C@]12C [3α-Hydroxy-5α-pregn-9-en-20-one],Loss-of-Righting Reflex,mice [14]; 10 mg/kg,100
"CC(=O)[C@H]1CC[C@H]2[C@@H]3CC[C@@H]4C[C@H](O)CC[C@]4(C)[C@H]3CC[C@]12C [5β-pregnan-3α-ol-20-one, 3α-OH-5β-pregnan-20-one]","number of transitions between the dark box and the light box, in words",[16],significantly increased
same,% of Inhibition,[10],9%
"C[C@]12CC[C@@H](O)C[C@H]1CC[C@@H]1[C@@H]2CC[C@]2(C)[C@@H](C(=O)CO)CC[C@@H]12 [5β-pregnan-3α,21-diol-20-one]",% of Inhibition,[10],6%
same,inhibition,Glucocorticoid Receptors,8.2%
same,inhibition at 1 µM,[12],13.8%
CC(=O)[C@H]1CC[C@H]2[C@@H]3CC[C@@H]4C[C@@](O)(C#CCl)CC[C@]4(C)[C@H]3CC[C@]12C [3β-(Chloroethynyl)-3α-hydroxy-5β-pregnan-20-one],Loss-of-Righting Reflex,mice [14]; 20 mg/kg,100

# — EP1038880B1, “Androstanes and pregnanes for allosteric modulation of GABA receptor” (priority 1994, dated 1995)
